The values that follow come from patent US7211566B2 (Universite De Sherbrooke, priority 2003, dated 2007).

Ends that are not written are not given here.

In data set [1] the target is T1, aminopeptidase M (AmM) (Homo sapiens, UniProt P15144).
T1 construct: incubated for 60 min with 50 μl of human plasma; from tissue; host or cells: human plasma from heparinized blood of healthy male volunteers
Put plainly: In vitro metabolic stability against human plasma AmM. The class given is in vitro ADME. The following applies: male, human plasma as source of aminopeptidase M, pH 7.5, peptide 200 μM, 60 min incubation, mean ± SEM of 3, read-out: Peptide metabolism (%) Human plasma AmM. On the procedure:
(§1) These assays were performed using three enzyme preparations: purified angiotensin converting enzyme (ACE; from rabbit lung), human plasma as a, source of aminopeptidase M (AmM) and human platelets as a source of aminopeptidase P (AmP).
Human plasma AmM was prepared as previously described (Gobeil et al., 1999, Hypertension, 33, 823–829). Blood (5 ml) was withdrawn from healthy normotensive male Caucasian volunteers and put into heparinized tube (200 U). Blood samples were centrifuged at 1500 rpm for 15 min in a refrigerated tabletop centrifuge. The peptide antagonists (200 μM) were placed in a PBS buffer (50 mM, pH 7.5, containing 300 mM NaCl) and incubated for 60 min with 50 μl of human plasma (total volume of the medium, 375 μl). Immersing samples into boiling water and then cooling them on ice stopped the hydrolysis reaction. Control experiments have shown that ≈70% of the kininase activity that is present in the human plasma is abolished by amastatin (1 μM) and that the incubation of Lys-[Leu^8]desArg^9BK with this enzymatic preparation led to the production of [Leu^8]desArg^9BK as detected by electrospray mass spectrometry.

In data set [2] the target is T2, angiotensin converting enzyme (ACE) (Oryctolagus cuniculus, UniProt P12822).
T2 construct: In Vitro Biochemical Stability Assays Against Purified Native Enzymes; purchased Sigma, St. Louis, Mo; host or cells: rabbit lung
T2 sequence (P12822 34-1310): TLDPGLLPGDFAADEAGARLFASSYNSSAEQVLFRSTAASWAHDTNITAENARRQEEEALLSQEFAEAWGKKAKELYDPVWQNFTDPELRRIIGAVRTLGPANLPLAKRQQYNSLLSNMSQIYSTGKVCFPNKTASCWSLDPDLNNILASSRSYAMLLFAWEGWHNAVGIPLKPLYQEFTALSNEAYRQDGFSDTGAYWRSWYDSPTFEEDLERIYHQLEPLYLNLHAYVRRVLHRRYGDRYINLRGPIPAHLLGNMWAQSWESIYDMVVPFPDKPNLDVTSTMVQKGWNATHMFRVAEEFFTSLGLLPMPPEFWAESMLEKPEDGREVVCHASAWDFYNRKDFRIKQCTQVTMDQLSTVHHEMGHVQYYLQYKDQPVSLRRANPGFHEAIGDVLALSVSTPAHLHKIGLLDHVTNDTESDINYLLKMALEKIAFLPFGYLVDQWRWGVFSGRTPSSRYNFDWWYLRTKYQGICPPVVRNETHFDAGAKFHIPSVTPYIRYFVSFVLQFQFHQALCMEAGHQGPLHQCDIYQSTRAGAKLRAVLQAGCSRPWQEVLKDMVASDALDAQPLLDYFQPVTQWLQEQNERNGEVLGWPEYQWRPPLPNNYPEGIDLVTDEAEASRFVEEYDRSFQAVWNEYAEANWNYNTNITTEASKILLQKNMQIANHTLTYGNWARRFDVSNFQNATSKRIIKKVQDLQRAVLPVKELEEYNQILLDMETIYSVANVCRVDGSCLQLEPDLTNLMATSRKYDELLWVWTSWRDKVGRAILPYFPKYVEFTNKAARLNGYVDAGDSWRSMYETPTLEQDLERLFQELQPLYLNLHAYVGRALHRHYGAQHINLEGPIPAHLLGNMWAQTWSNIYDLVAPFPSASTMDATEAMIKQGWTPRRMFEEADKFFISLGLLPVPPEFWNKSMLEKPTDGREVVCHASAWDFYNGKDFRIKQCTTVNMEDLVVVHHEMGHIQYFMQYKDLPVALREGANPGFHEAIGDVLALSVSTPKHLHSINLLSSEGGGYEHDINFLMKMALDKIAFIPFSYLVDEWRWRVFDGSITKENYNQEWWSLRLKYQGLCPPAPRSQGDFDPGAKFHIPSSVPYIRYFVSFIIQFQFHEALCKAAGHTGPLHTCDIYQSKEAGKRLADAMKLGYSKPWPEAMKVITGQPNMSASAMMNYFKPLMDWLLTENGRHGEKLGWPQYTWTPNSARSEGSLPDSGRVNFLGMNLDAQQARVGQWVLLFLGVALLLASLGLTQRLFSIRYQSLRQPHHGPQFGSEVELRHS
Put plainly: In vitro metabolic stability against purified rabbit lung ACE. The class given is in vitro ADME. The following applies: purified angiotensin converting enzyme from rabbit lung, pH 7.5, peptide 200 μM, 60 min at 37° C., mean ± SEM of 3, read-out: Peptide metabolism (%) Rabbit lung ACE. As to the method:
as §1
Purified ACE from rabbit lungs (Sigma, St. Louis, Mo.) was dissolved in PBS (50 mM, pH 7.5, containing 300 mM NaCl and 10 μM ZnCl2; the final concentration of ACE was 45 μg/ml). Each of the peptide antagonists (200 μM) was incubated for 60 min at 37° C. with ACE (8.5 μl) (total volume medium, 187.5 μl). The enzymatic reaction was then terminated by boiling.
The experimental protocol for the measurement of ACE activity has been described elsewhere (Drapeau et a). 1993, J Pharmacol Exp Ther 266, 192–198; Gobeil et al., 1996, supra).

Data set [3] has as its target T3, aminopeptidase P (AmP) (Homo sapiens, UniProt Q9NQW7).
T3 construct: from tissue; host or cells: human platelets, freeze-thawed and sonicated, 43 000 x g supernatant
Put plainly: In vitro metabolic stability against human platelets AmP. As to conditions: mean ± SEM of 3 experiments. The class given is in vitro ADME. On the procedure:
as §1
Human platelet AmP was prepared as described by Maggiora et al. (1999, J Med Chem 42, 2394–2402). Human platelets (40 ml) were centrifuged at 250×g for 7 min at room temperature. The resulting supernatant was recentrifuged at 2790×g for 15 min at room temperature. Pellets were collected, resuspended in 40 ml of phosphate-buffered saline (PBS) containing 3.5% of sodium citrate, and then re-centrifuged at 2790×g for 15 min at room temperature. This washing step was repeated. Pellets were resuspended in 4 ml of PBS-sodium citrate, snap-frozen in liquid nitrogen, thawed at 37° C., sonicated briefly, and then centrifuged at 43 000×g for 2 h at 4° C. (Sorvall RC 5B, ss-34 rotor). The resulting supernatant was used for enzyme assays as described in Neugebauer et al. (Neugebauer et al. 2002, supra).

Data set [4] concerns the target T4, BKB1 receptor (Homo sapiens, UniProt P46663).
T4 sequence (P46663 1-353): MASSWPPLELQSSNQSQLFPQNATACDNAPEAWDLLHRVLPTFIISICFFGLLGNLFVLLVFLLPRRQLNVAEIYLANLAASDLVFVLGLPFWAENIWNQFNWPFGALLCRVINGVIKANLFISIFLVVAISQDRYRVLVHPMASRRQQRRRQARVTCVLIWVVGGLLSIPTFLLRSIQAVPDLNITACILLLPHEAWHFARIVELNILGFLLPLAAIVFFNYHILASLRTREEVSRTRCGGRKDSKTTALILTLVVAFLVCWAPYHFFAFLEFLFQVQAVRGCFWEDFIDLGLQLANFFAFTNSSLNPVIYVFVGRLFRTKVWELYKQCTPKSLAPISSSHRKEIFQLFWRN
Put plainly: Isolated human umbilical vein (hUV) organ bath, antagonist potency pA2. Further details: the hUV that contains BKB1 and BKB2 receptors; from tissue; host or cells: isolated human umbilical vein (hUV). Format: cell-based. On the procedure:
(§2) Selected antagonists were tested for activities in three isolated organs: (1) the rabbit aorta (rbA), (2) the human umbilical vein (hUV) and (3) the rabbit jugular vein (rbJV).
(§3) All details regarding the procurements of human umbilical cords and rabbit vessels as well as, the procedures for preparing the isolated organs and the experimental protocols are described in these respective publications: rbA (Rioux et al. 1973, Can J Physiol Pharmacol 51, 114–121); hUV (Gobeil et al. 1996, Br J Pharmacol 118, 289–294), and rbJV (Gaudreau et al. 1981, Can J Physiol Pharmacol 59, 371–379).
(§4) The rabbit jugular vein (a pure BKB2 receptor system) was used to exclude any action of the new compounds on the BKB2 receptor and thus establish their selectivity. All tissues were treated with captopril (1 μM) to prevent the degradation of the peptidic agonists.
(§5) Repeated applications of a single and double concentration of BK (on rbJV,) or of desArg^9BK (rbA and hUV) were made in the absence and in presence of the various peptides to evaluate their apparent affinities as antagonists, in terms of pA2 (-log10 of the molar concentration of antagonist that reduces the effect of a double concentration of agonist to that of a single one) (Schild 1947, Br J Pharmacol 2, 189–206).

Data set [5] addresses T5, BKB1 receptor (Oryctolagus cuniculus, UniProt P48748).
T5 construct: The rabbit aorta without endothelium (which contains only the BKB1 receptor); from tissue; host or cells: isolated rabbit aorta (rbA) without endothelium
T5 sequence (P48748 1-352): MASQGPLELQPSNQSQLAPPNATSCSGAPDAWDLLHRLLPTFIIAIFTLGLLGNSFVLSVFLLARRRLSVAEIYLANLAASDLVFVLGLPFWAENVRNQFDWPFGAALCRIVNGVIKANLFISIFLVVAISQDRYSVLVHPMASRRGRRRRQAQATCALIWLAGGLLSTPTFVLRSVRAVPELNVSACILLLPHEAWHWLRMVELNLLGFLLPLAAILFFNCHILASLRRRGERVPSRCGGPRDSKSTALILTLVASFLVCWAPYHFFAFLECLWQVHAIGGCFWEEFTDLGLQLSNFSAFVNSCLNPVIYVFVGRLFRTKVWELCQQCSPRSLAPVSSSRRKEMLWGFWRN
Put plainly: Isolated rabbit aorta (rbA) organ bath, antagonist potency pA2. The class given is cell-based. As to conditions: rabbit aorta without endothelium; mean ± SEM of 4–7 experiments. On the procedure: as §2, §3
The rabbit aorta without endothelium (which contains only the BKB1 receptor) was used to determine the antagonistic activities of each compound.
as §4, §5

Data set [6] has as its target T6, BKB2 receptor (Oryctolagus cuniculus, UniProt Q28642).
T6 construct: The rabbit jugular vein (a pure BKB2 receptor system); from tissue; host or cells: isolated rabbit jugular vein (rbJV)
T6 sequence (Q28642 1-367): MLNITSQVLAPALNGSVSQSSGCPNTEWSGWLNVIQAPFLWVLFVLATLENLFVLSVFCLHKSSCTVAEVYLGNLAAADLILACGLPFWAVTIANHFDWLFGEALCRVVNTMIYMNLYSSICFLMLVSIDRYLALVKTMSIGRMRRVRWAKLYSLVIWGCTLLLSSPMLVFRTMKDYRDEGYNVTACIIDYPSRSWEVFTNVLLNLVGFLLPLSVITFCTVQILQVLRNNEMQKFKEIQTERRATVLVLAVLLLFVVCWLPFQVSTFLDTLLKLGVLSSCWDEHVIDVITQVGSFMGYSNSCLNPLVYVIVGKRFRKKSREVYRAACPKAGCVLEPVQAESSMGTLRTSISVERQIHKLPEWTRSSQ
Put plainly: Isolated rabbit jugular vein (rbJV) organ bath, antagonist potency pA2. The class given is cell-based. The following applies: BK as agonist. On the procedure:
as §2, §3, §4, §5

Data set [7] can be described thus: human plasma as a source of aminopeptidase M (AmM). The following applies: up to 60 min.
In data set [8] the test system is angiotensin converting enzyme (ACE). Put plainly: Purified ACE from rabbit lungs (Sigma, St. Louis, Mo.) dissolved in PBS (50 mM, pH 7.5, containing 300 mM NaCl and 10 μM ZnCl2). As to conditions: 37° C., up to 60 min.
In data set [9] the test system is carboxypeptidases of the M type (CPM). As to conditions: cited from earlier work.
Data set [10] deals with carboxypeptidases of the N type (CPN). As to conditions: cited from earlier work.

T3 sequence (Q9NQW7 whole entry): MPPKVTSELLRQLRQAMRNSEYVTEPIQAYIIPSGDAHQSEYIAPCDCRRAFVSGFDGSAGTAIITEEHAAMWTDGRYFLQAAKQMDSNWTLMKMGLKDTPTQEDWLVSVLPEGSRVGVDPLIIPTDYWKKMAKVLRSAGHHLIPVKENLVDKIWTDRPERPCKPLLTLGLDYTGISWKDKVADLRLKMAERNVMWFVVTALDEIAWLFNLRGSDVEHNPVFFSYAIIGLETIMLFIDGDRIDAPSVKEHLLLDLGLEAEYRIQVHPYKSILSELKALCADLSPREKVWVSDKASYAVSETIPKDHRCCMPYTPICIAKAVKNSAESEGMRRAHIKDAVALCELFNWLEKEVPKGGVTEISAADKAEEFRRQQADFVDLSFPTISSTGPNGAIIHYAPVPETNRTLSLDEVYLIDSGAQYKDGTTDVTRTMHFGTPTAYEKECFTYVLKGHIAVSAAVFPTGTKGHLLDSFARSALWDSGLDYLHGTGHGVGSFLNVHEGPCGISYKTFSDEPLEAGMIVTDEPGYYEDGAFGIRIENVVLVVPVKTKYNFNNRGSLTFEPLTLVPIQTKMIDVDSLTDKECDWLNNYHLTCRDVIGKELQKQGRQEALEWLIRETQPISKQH
T1 sequence (P15144 whole entry): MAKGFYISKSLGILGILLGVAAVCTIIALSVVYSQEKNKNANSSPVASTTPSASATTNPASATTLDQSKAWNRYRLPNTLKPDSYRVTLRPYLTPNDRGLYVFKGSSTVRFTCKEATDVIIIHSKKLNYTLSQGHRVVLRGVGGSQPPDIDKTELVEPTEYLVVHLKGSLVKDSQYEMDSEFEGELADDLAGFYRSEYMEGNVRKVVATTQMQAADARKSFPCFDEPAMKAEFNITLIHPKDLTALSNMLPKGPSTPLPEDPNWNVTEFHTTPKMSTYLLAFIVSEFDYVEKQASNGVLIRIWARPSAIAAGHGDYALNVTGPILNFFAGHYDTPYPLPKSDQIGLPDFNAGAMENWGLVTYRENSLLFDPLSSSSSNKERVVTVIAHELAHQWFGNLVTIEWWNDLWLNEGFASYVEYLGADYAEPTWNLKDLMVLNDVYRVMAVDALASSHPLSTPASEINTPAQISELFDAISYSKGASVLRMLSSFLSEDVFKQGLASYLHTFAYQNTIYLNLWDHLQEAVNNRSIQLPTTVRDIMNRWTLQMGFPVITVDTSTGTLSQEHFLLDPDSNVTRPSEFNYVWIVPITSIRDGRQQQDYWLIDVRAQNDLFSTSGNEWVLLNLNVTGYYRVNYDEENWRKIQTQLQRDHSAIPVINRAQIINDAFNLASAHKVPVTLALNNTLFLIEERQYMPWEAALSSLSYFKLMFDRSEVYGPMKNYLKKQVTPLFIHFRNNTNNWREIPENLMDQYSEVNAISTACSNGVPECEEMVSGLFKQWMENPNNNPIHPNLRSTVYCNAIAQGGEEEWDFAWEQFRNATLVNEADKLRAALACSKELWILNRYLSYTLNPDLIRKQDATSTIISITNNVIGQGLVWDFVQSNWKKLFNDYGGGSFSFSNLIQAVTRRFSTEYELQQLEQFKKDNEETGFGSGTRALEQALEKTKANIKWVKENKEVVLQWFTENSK

For the molecule `CC(C)C[C@H](NC(=O)[C@@H]1CCCN1C(=O)[C@H](CO)NC(=O)[C@H](Cc1ccccc1)NC(=O)CNC(=O)[C@@H]1CCCN1C(=O)[C@@H]1CCCN1C(=O)[C@H](CCCN=C(N)N)NC(=O)[C@@H](N)CCCCN)C(=O)O` [Lys-[Leu^8]desArg^9-BK, Lys-[Leu^8] desArg^9BK, reference compound], the metabolised at 1 h, 200 µM was 100% in data set [1] and 93 ± 3% in [2]. Besides, in data set [3], the “Peptide metabolism (%) Human platelets AmP” value was 99 ± 1%. Besides, the “affinity higher than that of [Leu^8]desArg^9BK” value in data set [4] (BKB1 receptor antagonist affinity, effect of N-terminal Lys) was “at least 1.5 log units”.

As to “Ac-Lys-[D-βNal^7, Ile^8] desArg^9BK [Ac-Lys-[D-βNal^7, Ile^8]desArg^9-BK, reference compound]”, the “Antagonist potencies (pA2) BKB1-R rbA” value in [5] came to 8.40 ± 0.12. For the same molecule, the “Antagonist potencies (pA2) BKB1-R hUV” value in data set [4] (human umbilical vein treated with HOE 140, mean ± SEM of 4–7 experiments) is on record as 8.49 ± 0.10. Moreover, the “Antagonist potencies (pA2) BKB2-R rbJV” value in data set [6] is less than 6.00.

On to “Ac-Lys[Oic^2,(α-Me)Phe^5,D-βNal^7,Ile^8]desArg^9BK”, for which the not cleaved entry in [7] and in data set [8] was “Peptide metabolism 0 % (60 min)” in each case.

Consider “Ac-Orn[Oic^2,Oic^3(α-Me)Phe^5,D-βNal^7,Ile^8]desArg^9BK”, for which the “Antagonist potencies (pA2) BKB1-R rbA” value in data set [5] was found to be 8.30 ± 0.08. Moreover, in [6], the “Antagonist potencies (pA2) BKB2-R rbJV” value is less than 6.00.

Turning to Lys-[Leu^8] desArg^9BK, in [7], the fragment found entry is “[Leu^8]desArg^9BK”. In [8], the cleaved bond entry was “Phe5-Ser6”.

As to RPPGFSPFR, the cleaved bond result in [9] and in data set [10] was “Phe8-Arg9” throughout.
